Measurements published in ChEMBL document CHEMBL3774347, “Docking and Linking of Fragments To Discover Jumonji Histone Demethylase Inhibitors” (J Med Chem, 2016).

Key:
[1] = biological target: T1, Lysine-specific demethylase 4C (Homo sapiens, UniProt Q9H3R0); assay: Inhibition of N-terminal His6-tagged KDM4C (1 to 352 residues) (unknown origin) expressed in Escherichia coli Rosetta 2(DE3)pLysS using biotinylated histone H3 (1 to 21 residues) lysine 9 trimethylated peptide/50 uM alpha-ketoglutarate as substrate/cofactor measured after 45 mins by TR-FRET assay; conditions: read-out: IC50
T1 sequence (Q9H3R0 whole entry): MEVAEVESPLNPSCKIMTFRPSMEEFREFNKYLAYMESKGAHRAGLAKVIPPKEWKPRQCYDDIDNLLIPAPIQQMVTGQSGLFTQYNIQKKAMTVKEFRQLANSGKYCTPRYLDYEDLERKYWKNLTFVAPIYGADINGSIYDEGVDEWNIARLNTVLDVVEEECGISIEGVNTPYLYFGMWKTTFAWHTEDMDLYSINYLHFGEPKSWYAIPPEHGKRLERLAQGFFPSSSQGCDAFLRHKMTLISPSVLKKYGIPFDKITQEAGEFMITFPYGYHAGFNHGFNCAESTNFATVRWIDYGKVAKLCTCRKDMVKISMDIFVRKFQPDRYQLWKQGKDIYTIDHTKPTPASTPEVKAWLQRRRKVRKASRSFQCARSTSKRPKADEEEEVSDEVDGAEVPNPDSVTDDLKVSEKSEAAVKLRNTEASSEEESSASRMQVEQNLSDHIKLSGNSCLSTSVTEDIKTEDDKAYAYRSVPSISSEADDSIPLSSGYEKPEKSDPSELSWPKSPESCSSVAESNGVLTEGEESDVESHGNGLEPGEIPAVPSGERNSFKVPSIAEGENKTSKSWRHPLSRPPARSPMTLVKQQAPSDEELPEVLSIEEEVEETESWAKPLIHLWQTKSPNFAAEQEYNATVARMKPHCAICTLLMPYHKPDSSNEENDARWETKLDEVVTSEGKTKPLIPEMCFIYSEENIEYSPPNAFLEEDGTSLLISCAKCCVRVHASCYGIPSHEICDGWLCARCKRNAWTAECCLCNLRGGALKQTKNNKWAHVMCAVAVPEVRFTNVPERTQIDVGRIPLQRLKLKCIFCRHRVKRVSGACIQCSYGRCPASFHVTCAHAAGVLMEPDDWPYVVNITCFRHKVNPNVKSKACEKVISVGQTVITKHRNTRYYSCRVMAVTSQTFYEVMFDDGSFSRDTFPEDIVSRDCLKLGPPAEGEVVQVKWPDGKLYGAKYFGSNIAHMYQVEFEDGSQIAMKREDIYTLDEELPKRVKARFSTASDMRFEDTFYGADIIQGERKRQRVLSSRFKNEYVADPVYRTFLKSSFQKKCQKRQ

[2] = biological target: T2, Lysine-specific demethylase 4D (Homo sapiens, UniProt Q6B0I6); assay: Inhibition of KDM4D (unknown origin) expressed in Escherichia coli using H3 (1 to 21 residues) K9Me3-GGK-Biotin KDM4 Cognate Ligand/10 uM alpha-ketoglutarate as substrate/cofactor preincubated for 5 mins followed by substrate addition measured after 20 mins by alphascreen assay
T2 sequence (Q6B0I6 whole entry): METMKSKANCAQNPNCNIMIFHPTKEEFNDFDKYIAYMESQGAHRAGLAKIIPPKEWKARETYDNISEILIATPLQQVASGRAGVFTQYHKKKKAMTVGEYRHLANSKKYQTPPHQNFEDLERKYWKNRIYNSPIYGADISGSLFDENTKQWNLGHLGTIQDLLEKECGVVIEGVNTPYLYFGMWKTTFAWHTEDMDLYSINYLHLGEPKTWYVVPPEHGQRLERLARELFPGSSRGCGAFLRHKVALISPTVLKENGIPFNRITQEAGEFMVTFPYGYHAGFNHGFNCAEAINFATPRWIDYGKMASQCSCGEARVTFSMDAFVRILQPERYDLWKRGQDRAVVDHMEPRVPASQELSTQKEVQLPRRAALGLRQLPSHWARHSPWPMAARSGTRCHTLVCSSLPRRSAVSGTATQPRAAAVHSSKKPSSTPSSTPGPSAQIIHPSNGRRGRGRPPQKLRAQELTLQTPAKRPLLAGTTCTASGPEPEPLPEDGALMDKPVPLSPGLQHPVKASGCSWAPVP

[3] = biological target: T1, Lysine-specific demethylase 4C; assay: Inhibition of N-terminal His6-tagged KDM4C (1 to 352 residues) (unknown origin) expressed in Escherichia coli Rosetta 2(DE3)pLysS using ARTKQTARK(Me3)STGGKA peptide/100 uM alpha-ketoglutarate as substrate/cofactor incubated for 45 mins by MALDI assay
[4] = biological target: Lysine-specific demethylase 5A (Homo sapiens, UniProt P29375); assay: Inhibition of KDM5A (1 to 797 residues) (unknown origin) expressed in insect sf21 cells using ARTK(Me3)QTARKSTGGKAPRK peptide/ 100 uM alpha-ketoglutarate as substrate/cofactor incubated for 45 mins by MALDI assay
[5] = biological target: T1, Lysine-specific demethylase 4C; assay: Inhibition of N-terminal His6-tagged KDM4C (1 to 352 residues) (unknown origin) expressed in Escherichia coli Rosetta 2(DE3)pLysS using biotinylated peptide/ 2 uM alpha-ketoglutarate as substrate/cofactor preincubated for 15 mins followed by substrate addition measured after 15 mins by alphascreen assay

Sequence of Lysine-specific demethylase 5A (P29375 whole entry, the tested form may be a part): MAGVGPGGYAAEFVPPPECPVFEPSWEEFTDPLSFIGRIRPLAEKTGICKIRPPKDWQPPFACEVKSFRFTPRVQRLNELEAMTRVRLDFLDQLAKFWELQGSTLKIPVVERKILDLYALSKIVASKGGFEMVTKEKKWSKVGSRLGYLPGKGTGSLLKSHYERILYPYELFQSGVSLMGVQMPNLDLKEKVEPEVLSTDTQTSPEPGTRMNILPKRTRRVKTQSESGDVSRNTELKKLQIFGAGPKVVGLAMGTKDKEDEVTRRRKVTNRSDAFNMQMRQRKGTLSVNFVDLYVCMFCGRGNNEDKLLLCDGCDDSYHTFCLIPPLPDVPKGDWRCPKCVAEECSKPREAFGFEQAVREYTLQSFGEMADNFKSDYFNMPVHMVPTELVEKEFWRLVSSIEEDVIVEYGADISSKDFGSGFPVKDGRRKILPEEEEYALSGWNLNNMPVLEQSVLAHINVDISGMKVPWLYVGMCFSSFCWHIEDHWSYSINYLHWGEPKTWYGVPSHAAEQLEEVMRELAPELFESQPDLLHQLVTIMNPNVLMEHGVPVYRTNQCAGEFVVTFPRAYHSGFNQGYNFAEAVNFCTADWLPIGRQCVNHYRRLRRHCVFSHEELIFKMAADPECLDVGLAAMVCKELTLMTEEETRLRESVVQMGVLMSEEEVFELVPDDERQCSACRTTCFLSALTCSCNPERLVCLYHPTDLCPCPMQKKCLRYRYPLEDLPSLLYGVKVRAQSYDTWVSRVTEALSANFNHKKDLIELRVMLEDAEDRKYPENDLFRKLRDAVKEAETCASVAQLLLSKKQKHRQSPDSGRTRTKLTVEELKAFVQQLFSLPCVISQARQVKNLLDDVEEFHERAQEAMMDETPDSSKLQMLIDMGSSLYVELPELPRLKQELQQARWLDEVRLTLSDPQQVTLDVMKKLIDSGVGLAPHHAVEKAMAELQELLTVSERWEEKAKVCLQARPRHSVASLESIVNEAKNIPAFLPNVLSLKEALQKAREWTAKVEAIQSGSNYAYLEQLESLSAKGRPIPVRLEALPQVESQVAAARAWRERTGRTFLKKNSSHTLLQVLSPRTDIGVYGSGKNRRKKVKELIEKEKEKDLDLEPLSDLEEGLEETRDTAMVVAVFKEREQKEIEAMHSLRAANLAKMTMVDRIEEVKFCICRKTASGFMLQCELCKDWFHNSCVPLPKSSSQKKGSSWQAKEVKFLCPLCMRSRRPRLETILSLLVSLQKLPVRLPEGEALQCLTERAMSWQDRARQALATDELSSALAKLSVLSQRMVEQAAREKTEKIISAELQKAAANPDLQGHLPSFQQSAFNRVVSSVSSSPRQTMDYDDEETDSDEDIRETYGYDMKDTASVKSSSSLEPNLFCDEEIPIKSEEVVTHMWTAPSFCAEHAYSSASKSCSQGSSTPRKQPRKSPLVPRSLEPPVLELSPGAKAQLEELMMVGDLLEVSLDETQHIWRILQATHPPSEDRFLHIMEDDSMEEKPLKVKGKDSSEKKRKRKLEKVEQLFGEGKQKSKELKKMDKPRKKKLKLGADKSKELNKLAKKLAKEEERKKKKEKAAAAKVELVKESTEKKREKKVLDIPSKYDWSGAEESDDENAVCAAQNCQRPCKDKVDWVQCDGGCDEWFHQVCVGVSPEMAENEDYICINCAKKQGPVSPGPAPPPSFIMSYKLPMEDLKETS

Row | SMILES | IC50 [1] [µM] | IC50 [2] [µM] | IC50 [3] [µM] | IC50 [4] [µM] | IC50 [5] [µM]
1 | COCC(=O)Nc1ccc(O)c(-c2cc(C(=O)O)ccn2)c1 | 7.4 | 4.2 | 47 | 180 | 3.8
2 | CC(=O)Nc1ccc(O)c(-c2cc(C(=O)O)ccn2)c1 | 40 | 14 | 63 | 240 | 15
3 | COc1cccc(CC(=O)Nc2ccc(O)c(-c3cc(C(=O)O)ccn3)c2)c1 | 1.5 | 11 | 7.3 | 52 | 9.9
4 | O=C(O)c1ccnc(-c2cc(NC(=O)c3ccc(O)cc3)ccc2O)c1 | 2.6 | 13 | 5.9 | 45 | 12
5 | Cc1cc(C(=O)Nc2ccc(O)c(-c3cc(C(=O)O)ccn3)c2)no1 | 5 | 9.2 | 16 | 23 | 5.5
